Values of other authors as cited in patent US20040024042A1, “COX2 inhibition in the prevention and treatment of autosomal dominant polycystic kidney disease” (Vanderbilt University, priority 2002, published 2004).
Each block holds one compound with its values, some of them ahead of it.

Experiments:
[1] = test system: albumin and alpha1-acid glycoprotein; details: within the clinical dose range
Cytochrome P450 2C9 = Cytochrome P450 2C9 (Homo sapiens, UniProt P11712)
[2] = not given; remark: listed apart in the source
[3] = not given; remark: listed apart in the source
warfarin metabolism = details: in vivo
mouse models of FAP = details: mice treated with COX2 inhibitor

Sequence of Cytochrome P450 2C9 (P11712 whole entry): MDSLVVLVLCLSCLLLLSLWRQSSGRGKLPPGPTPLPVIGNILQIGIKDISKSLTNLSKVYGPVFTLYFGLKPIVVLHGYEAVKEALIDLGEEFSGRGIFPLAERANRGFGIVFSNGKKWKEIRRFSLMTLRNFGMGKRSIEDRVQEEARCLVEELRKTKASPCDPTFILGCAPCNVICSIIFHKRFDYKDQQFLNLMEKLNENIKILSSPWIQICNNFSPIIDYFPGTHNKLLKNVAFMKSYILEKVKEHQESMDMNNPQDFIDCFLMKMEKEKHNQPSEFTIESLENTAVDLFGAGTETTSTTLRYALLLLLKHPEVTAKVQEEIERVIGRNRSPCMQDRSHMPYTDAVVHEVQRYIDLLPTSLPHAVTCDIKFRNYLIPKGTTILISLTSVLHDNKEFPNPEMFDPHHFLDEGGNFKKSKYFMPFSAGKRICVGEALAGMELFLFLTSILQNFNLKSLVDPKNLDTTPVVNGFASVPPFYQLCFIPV

Compound: CC(=O)O[C@H]1C(=O)[C@@]2(C)[C@H]([C@H](OC(=O)c3ccccc3)[C@]3(O)C[C@H](OC(=O)[C@H](O)[C@@H](NC(=O)c4ccccc4)c4ccccc4)C(C)=C1C3(C)C)[C@]1(OC(C)=O)CO[C@@H]1C[C@@H]2O [Taxol]
Progression of PKD (PKD in animal models): slow progression of PKD

Time of peak plasma levels (after an oral dose): roughly 3 hours
Effect of antacids on plasma concentrations (aluminum or magnesium containing antacids): decrease in plasma concentrations
Effective half-life (fasted conditions): roughly 11 hours
Dose excreted in feces (following a single dose): 57%
Dose excreted in the urine (following a single dose): 27%
Delay of plasma levels with food (taken with a high fat meal): 1 to 2 h
Increase in total absorption with food (taken with a high fat meal): 10-20%
Protein binding [1]: highly protein bound
Major metabolizing enzyme (Cytochrome P450 2C9): Cytochrome P450 2C9
Compound: Cc1ccc(-c2cc(C(F)(F)F)nn2-c2ccc(S(N)(=O)=O)cc2)cc1 [celecoxib, 4-[5-(4-methyphenyl)-3-(trifluoromethyl)-1H-pyrazol-1-yl] benzenesulfonamide]

Time to steady state level ([2]; 25 mg qday): 4 days
Increase of AUC in moderate hepatic insufficiency ([2]; Child-Pugh score 7-9): 69%
Peak plasma concentration (Cmax) ([2]; after a 25-mg dose): 200 ng/mL
Reduction of Cmax by antacids ([2]; antacids): 20%
Reduction of extent of absorption by antacids ([2]; antacids): 10-15%
Increase in bioavailability in elderly patients ([2]; elderly patients (>65 yrs) compared to young subjects): 34%
Cd ([2]; in vivo): 90 L
Dose excreted unchanged in the urine ([2]; in vivo): < 1%
Oral bioavailability ([2]; in vivo, po): > 90%
Accumulation factor ([2]; repeated administration): 1.67
Cssmax ([2]; steady state, 25 mg qday): 320 ng/mL
Induction of the 3A4 isoform (Cytochrome P450 3A4; in vivo): mild inducer
Substrate of the P450 system (Cytochrome P450 3A4; in vivo): not a substrate for the P450 system
Reduction of the AUC of midazolam (Cytochrome P450 3A4; rofecoxib 25 mg daily): 30%
Increase of INR with warfarin (warfarin metabolism): about 10%
Compound: CS(=O)(=O)c1ccc(C2=C(c3ccccc3)C(=O)OC2)cc1 [rofecoxib]
Crossing of the placenta and the blood-brain barrier ([3]; animal studies): able to cross the placenta and the blood-brain barrier
Excretion in milk ([3]; lactating animals): excreted in the milk of lactating animals
Polyp formation (mouse models of FAP): marked reduction in polyp formation
